Data as given in PubChem BioAssay AID264 (DTP/NCI, 2004).
Values joined by “and” are separate entries in the source; they are usually repeats but may differ in a detail not shown here. Identical values can stand only once. Results filed as inconclusive are left out.

Tested on: nude mice, LX-1 lung xenograft intrarenal, tumor weight T/C
Assay: NCI In Vivo Anticancer Drug Screen. Data for tumor model Human Lung LX-1 Xenograft (intrarenal inoculation) in NU/NU Swiss (nude) mice
Settings: endpoint: mean tumor weight change, higher = larger tumour
How it was run: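 Compound-treated mice carrying transplanted tumors were compared with vehicle-treated controls. Tumor size was the measured end point, and the value is the treated-group measurement divided by the control-group measurement (T/C).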

[1] = dose: 300.0 mg/kg/injection, schedule: Q04DX003 (sc), vehicle: saline with Tween-80
[2] = dose: 600.0 mg/kg/injection, schedule: Q04DX003 (sc), vehicle: saline with Tween-80
[3] = dose: 1200.0 mg/kg/injection, schedule: Q04DX003 (sc), vehicle: saline with Tween-80
[4] = dose: 50.0 mg/kg/injection, schedule: Q01DX010 (sc), vehicle: saline

**Q.** `CN(C)N=Nc1ccc(S(N)(=O)=O)cc1` was tested. Which T/C (dose: 100.0 mg/kg/injection, schedule: Q01DX010 (sc), vehicle: Klucel (hydroxypropylcellulose) (HPC)) did it give?
**A.** Its T/C is 1 % of control and 8 % of control.

**Q.** And the T/C (dose: 200.0 mg/kg/injection, schedule: Q01DX010 (sc), vehicle: Klucel (hydroxypropylcellulose) (HPC))?
**A.** Its T/C is 3 % of control and 9 % of control.

**Q.** And the T/C (dose: 800.0 mg/kg/injection, schedule: Q01DX010 (sc), vehicle: Klucel (hydroxypropylcellulose) (HPC))?
**A.** Its T/C is 16 % of control.

**Q.** For `CC(=O)N(C)C`, which T/C (dose: 450.0 mg/kg/injection, schedule: Q01DX010 (sc), vehicle: saline) is on record?
**A.** The T/C was 70 % of control.

**Q.** Which results are given for `COc1cc(Cl)ccc1C`?
**A.** T/C [1]: 116 % of control; T/C [2]: 88 % of control; T/C [3]: 100 % of control; T/C (dose: 2400.0 mg/kg/injection, schedule: Q04DX003 (sc), vehicle: saline with Tween-80): 121 % of control

**Q.** How did the T/C (dose: 0.5 mg/kg/injection, schedule: Q01DX010 (sc), vehicle: saline) turn out when `NC(=O)c1cn(C2OC(CO)C(O)C2O)c2ncnc(N)c12` (centres undefined) was run?
**A.** The T/C was 74 % of control.

**Q.** And the T/C (dose: 1.0 mg/kg/injection, schedule: Q01DX010 (sc), vehicle: saline)?
**A.** The T/C was 88 % of control.

**Q.** And the T/C (dose: 2.0 mg/kg/injection, schedule: Q01DX010 (sc), vehicle: saline)?
**A.** The T/C was 27 % of control.

**Q.** What does the source list for `COc1cccc2c1C(=O)c1c(O)c3c(c(O)c1C2=O)C[C@@](O)(/C(CO)=N/NC(=O)c1ccc(Cl)c(Cl)c1)C[C@@H]3OC1CC(N)C(O)C(C)O1` (some centres undefined)?
**A.** T/C (dose: 8.0 mg/kg/injection, schedule: Q01DX010 (sc), vehicle: water): 28 % of control; T/C (dose: 16.0 mg/kg/injection, schedule: Q01DX010 (sc), vehicle: water): 2 % of control; T/C (dose: 24.0 mg/kg/injection, schedule: Q04DX003 (sc), vehicle: water): 54 % of control; T/C (dose: 48.0 mg/kg/injection, schedule: Q04DX003 (sc), vehicle: water): 66 % of control; T/C (dose: 96.0 mg/kg/injection, schedule: Q04DX003 (sc), vehicle: water): 33 % of control; T/C (dose: 192.0 mg/kg/injection, schedule: Q04DX003 (sc), vehicle: water): 30 % of control

**Q.** Which results are given for `c1ccc(CN2CCOC2)cc1`?
**A.** T/C [4]: 81 % of control; T/C (dose: 100.0 mg/kg/injection, schedule: Q01DX010 (sc), vehicle: saline): 165 % of control

**Q.** How did the T/C (dose: 12.5 mg/kg/injection, schedule: Q01DX010 (sc), vehicle: saline) turn out when `CS(=O)(=O)OCCN(CCOS(C)(=O)=O)c1ccc(C=O)cc1` was run?
**A.** The T/C was 188 % of control.

**Q.** And the T/C (dose: 25.0 mg/kg/injection, schedule: Q01DX010 (sc), vehicle: saline)?
**A.** Its T/C is 71 % of control.

**Q.** And the T/C [4]?
**A.** The T/C was 33 % of control.

**Q.** For `CC/C(=C(/CC)c1ccc(O)cc1)c1ccc(O)cc1`, which T/C (dose: 50.0 mg/kg/injection, schedule: Q01DX010 (sc), vehicle: saline with Tween-80) is on record?
**A.** Its T/C is 106 % of control.

**Q.** What about the T/C (dose: 100.0 mg/kg/injection, schedule: Q01DX010 (sc), vehicle: saline with Tween-80) of the same compound?
**A.** The T/C was 105 % of control.

**Q.** For `CCCCOCN(COCCCC)C(C)Cc1ccccc1` (centres undefined), which T/C (dose: 100.0 mg/kg/injection, schedule: Q04DX003 (sc), vehicle: saline with Tween-80) is on record?
**A.** The T/C was 71 % of control.

**Q.** What about the T/C (dose: 200.0 mg/kg/injection, schedule: Q04DX003 (sc), vehicle: saline with Tween-80) of the same compound?
**A.** Its T/C is 85 % of control.

**Q.** And the T/C (dose: 800.0 mg/kg/injection, schedule: Q04DX003 (sc), vehicle: saline with Tween-80)?
**A.** Its T/C is 121 % of control.

**Q.** How did the T/C [1] turn out when `COc1cc(O)c2c(O)c3c(c4c2c1[C@]1(C4)C(C)=CCCC1(C)C)[C@H](O)[C@@]1(O)CC(=O)C(C(N)=O)=C(O)[C@@]1(O)C3=O` was run?
**A.** Its T/C is 55 % of control.

**Q.** And the T/C [2]?
**A.** Its T/C is 58 % of control.

**Q.** And the T/C [3]?
**A.** Its T/C is 42 % of control.

**Q.** Which results are given for `COc1cc(NCc2ccc3nc(N)nc(N)c3c2C)cc(OC)c1OC`?
**A.** T/C (dose: 1.25 mg/kg/injection, schedule: Q01DX010 (sc), vehicle: sodium bicarbonate): 76 % of control; T/C (dose: 2.5 mg/kg/injection, schedule: Q01DX010 (sc), vehicle: sodium bicarbonate): 81 % of control; T/C (dose: 5.0 mg/kg/injection, schedule: Q01DX010 (sc), vehicle: sodium bicarbonate): 36 % of control; T/C (dose: 75.0 mg/kg/injection, schedule: Q04DX003 (sc), vehicle: water): 77 % of control; T/C (dose: 150.0 mg/kg/injection, schedule: Q04DX003 (sc), vehicle: water): 67 % of control

**Q.** For `COC(=Nc1ccccc1)SSC(C)C`, which T/C [1] is on record?
**A.** The T/C was 120 % of control.

**Q.** And the T/C [2]?
**A.** The T/C was 94 % of control.

**Q.** What about the T/C [3] of the same compound?
**A.** Its T/C is 107 % of control.

**Q.** `O=NN(CCCl)C(=O)NCCO` was tested. Which T/C (dose: 3.12 mg/kg/injection, schedule: Q04DX003 (sc), vehicle: water) did it give?
**A.** The T/C was 49 % of control and 65 % of control.
